System: BMDM
Test: Anti-osteoporosis activity in C57BL/6 mouse bone marrow macrophages assessed as inhibition of M-CSF/GST-tagged recombinant RANKL-induced osteoclast differentiation measured after 5 days by TRAP staining based assay
Assay type: functional, cell-based
Conditions: C57BL/6, BMDM, 120 h

IC50 [µM]	SMILES
10	C=C1[C@H](OC(=O)c2ccccc2)[C@@H](O)[C@@H](OC(=O)c2cccnc2)C(C)(C)/C=C/[C@@H](C)C(=O)[C@@]2(O)C[C@H](C)[C@H](OC(C)=O)[C@@H]2[C@H]1OC(C)=O
> 10	C=C1[C@H](OC(=O)c2ccccc2)[C@@H](OC(C)=O)[C@@H](OC(=O)c2cccnc2)C(C)(C)/C=C/[C@@H](C)C(=O)[C@@]2(O)C[C@H](C)[C@H](OC(C)=O)[C@@H]2[C@H]1OC(C)=O
